Results reported in US20070203066A1, “Compositions and methods for inhibiting cellular proliferation” (priority 2005, published 2007).
Read-outs that look alike come from different tables or passages of the source. Non-standard residues stand in square brackets, D forms with d. Primed or numbered codes have the meaning given here. No end group written: not given here. Ida = iminodiacetic acid linker, its two carboxyls bind the Lys side-chain amines of two peptides, giving a homodimer; Ida(3) = iminodiacetic acid linker, Lys side-chain amines bound to its two carboxyl groups; Ida(4) = iminodiacetic acid linker (dimerization linker bound to lysine side chain); Ida″ = iminodiacetic acid linker bound to the Lys side-chain amine, forming a dimer; ATA = not defined here; Aib = CC(C)(N)C(=O)O

System: HUVECs
Type: cell-based
Description: HUVECs were routinely cultured to near confluency in EGM media (Clontech, Mountain View, California). The cells were trypsinized and plated in a 96-well plate at 5,000 cells per well per 100 μl EBM supplemented with 2% FCS and antibiotics. The cells were allowed to adhere to the plate for at least 12 hours. Then, bFGF at 10 ng/ml or VEGF at 5 ng/ml, and various concentrations of peptide, were added to the wells. The cells were cultured for 48 hours at 37 ° C. in a 5% CO2 atmosphere. Cell proliferation was determined using a bromo-deoxyuridine (BrdU) incorporation method as described by the manufacturer. Inhibition of cell proliferation was assessed by BrdU incorporation.

[1] = HUVEC proliferation, bFGF at 10 ng/ml or VEGF at 5 ng/ml, 48 hours, BrdU incorporation, read-out: IC50 on HUVECs

Molecule | IC50 [1] | IC50 (48 h)
484 (Ac-ARRRNQAVAIKF; not fully specified (residue 11); also: homodimer: Lys11 side chain bound to Ida linker (Boc on Ida N)) [compound 484] | < 10 µM | –
CC[C@H](C)[C@H](NC(=O)[C@H](C)NC(=O)[C@@H](NC(=O)[C@H](C)NC(=O)[C@H](CCC(N)=O)NC(=O)[C@H](CCCNC(=N)N)NC(=O)[C@H](CCCNC(=N)N)NC(=O)[C@H](CCCNC(=N)N)NC(=O)[C@H](C)NC(=O)[C@H](CCCNC(=N)N)NC(C)=O)C(C)C)C(=O)N[C@@H](CC(N)=O)C(=O)N[C@@H](Cc1ccccc1)C(=O)N[C@@H](CCCCNC(=O)CN(CC(=O)NCCCC[C@H](NC(=O)[C@H](Cc1ccccc1)NC(=O)[C@H](CC(N)=O)NC(=O)[C@@H](NC(=O)[C@H](C)NC(=O)[C@@H](NC(=O)[C@H](C)NC(=O)[C@H](CCC(N)=O)NC(=O)[C@H](CCCNC(=N)N)NC(=O)[C@H](CCCNC(=N)N)NC(=O)[C@H](CCCNC(=N)N)NC(=O)[C@H](C)NC(=O)[C@H](CCCNC(=N)N)NC(C)=O)C(C)C)[C@@H](C)CC)C(N)=O)C(=O)CCNC(=O)OC(C)(C)C)C(N)=O [Peptide 272] | – | < 10 µM
KTKRARKKQRVKIIFVQNM [compound 119] | < 10 µM | –
438 (Ac-RRRRNQAVAIYFK(Ida(4)); not fully specified (C-terminus); also: homodimer via Ida linker at K13) [compound 438] | < 10 µM | –
KTKRKRKKQRVKIIFV [compound 85] | < 10 µM | –
337 (Ac-RHRHRQHVRIYFK(Ida(3))-NH2; also: homodimer via Lys13 side chain, Ida linker (Ida amino group Boc)) [compound 337] | < 10 µM | –
284 (Ac-RRRRHQHVAIYFK-NH2; not fully specified (residue 13); also: homodimer: Lys13 side chain bound to Ida linker) [compound 284] | < 10 µM | –
480 (Ac-PRRRWQAVAIYFK(Ida(3)); not fully specified (C-terminus); also: homodimer via Ida linker on Lys13 side chain) [compound 480] | 10 to 30 µM | –
RKKQQRVKIAYEEIFV [compound 78] | > 30 µM | –
KTKRKRKKQRVKIAYEEIFAANM [compound 46] | 10 to 30 µM | –
473 (Ac-PRRRLQAVAIYFK(Ida(3)); not fully specified (C-terminus); also: homodimer via Ida linker on Lys13 side chain) [compound 473] | > 30 µM | –
211 (Ac-RRRRRQAVAIIF; also: dimer: Phe C-termini joined via Lys linker) [compound 211] | < 10 µM | –
457 (Ac-PRRRRQAVAIYFK(ATA); reading uncertain; also: homotrimer via Ata linker on Lys13 side chain) [compound 457] | > 30 µM | –
217 (Ac-AHHHHQHVAIIF; also: dimer: Phe C-termini joined via Lys linker) [compound 217] | > 30 µM | –
382 (Ac-ARRRRQRVAIVFK-NH2; not fully specified (residue 13); also: homodimer via Ida linker on Lys13 side chain, Ida amine Boc) [compound 382] | < 10 µM | –
213 (Ac-ARARRQRVAIIF; also: dimer: Phe C-termini joined via Lys linker) [compound 213] | < 10 µM | –
321 (XRRRRQHVAIYFK; Xaa = Acylated Histidine; The side chain of Lysine at position 13 is covalently bound to an Ida linker forming a homodimer of residues 1 through 13.) [compound 321] | < 10 µM | –
427 (Ac-ARRRRQAVAIK(Ida(4))F; also: homodimer of residues 1-12 via Ida linker on Lys11 side chain) [compound 427] | < 10 µM | –
393 (Ac-ARRRRQAVQIYFK; not fully specified (residue 13, C-terminus); also: homodimer of residues 1-13 via Ida linker at Lys13 side chain) [compound 393] | < 10 µM | –

Molecule | IC50 [1] | IC50 (48 h)
450 (Ac-ARRRRQAVAILFK-NH2; not fully specified (residue 13); also: homodimer via Ida linker at K13) [compound 450] | < 10 µM | –
253 (Ac-ARRRRQRVAII[dF]K; not fully specified (C-terminus); also: homodimer: side chain of Lys13 bound to an Ida linker) [compound 253] | < 10 µM | –
500 (Ac-PRRNRQAVAIYFK(Ida″); not fully specified (C-terminus); also: homodimer via Ida linker on Lys13 side chain) [compound 500] | < 10 µM | –
298 (Ac-ARRRRQRVA[Aib]FK-NH2; not fully specified (residue 12); also: homodimer via Ida linker on Lys12 side chain) [compound 298] | > 30 µM | –
422 (Ac-ARRRRQTVAIYFK; not fully specified (residue 13, C-terminus); also: homodimer of residues 1-13 via Ida linker on K13 side chain) [compound 422] | < 10 µM | –
455 (Ac-TRRRRQAVAIVFK-NH2; not fully specified (residue 13); also: homodimer via Ida linker at K13) [compound 455] | < 10 µM | –
495 (Ac-PRERRQAVAIYFK(Ida″); not fully specified (C-terminus); also: homodimer via Ida linker on Lys13 side chain) [compound 495] | > 30 µM | –
264 (Ac-[dA]RRRRQRVAIIFK-NH2; not fully specified (residue 13); also: homodimer via Ida linker on Lys13 side chains) [compound 264] | < 10 µM | –
501 (Ac-PRRERQAVAIYFK; not fully specified (residue 13, C-terminus); also: homodimer via Ida linker on Lys13 side chain) [compound 501] | < 10 µM | –
391 (Ac-ARRRRQAVNIYFK; not fully specified (residue 13, C-terminus); also: homodimer of residues 1-13 via Ida linker at Lys13 side chain) [compound 391] | < 10 µM | –
304 (Ac-RRRRRQAVRIDIDFK(Ida)-NH2; also: homodimer via Ida linker on Lys15 side chain) [compound 304] | < 10 µM | –
308 (Ac-RRRRRQAVK(Ida)IIFV; also: homodimer via Ida linker on Lys9 side chain) [compound 308] | < 10 µM | –
KTKRKRKKQRVKIAYEEVFVKNM [compound 6] | < 10 µM | –
243 (Ac-RRHRRQRVHIIF; also: dimer via C-terminal Phe to Lys linker) [compound 243] | < 10 µM | –
KTKRKRKKQRVKIAYEEIFVK [compound 14] | < 10 µM | –
KTKRKRKKQRVKIAYEEIFV [compound 15] | < 10 µM | –
403 (Ac-GRRRRQAVAIYFK(Ida(3))-NH2; also: homodimer via Ida linker on Lys13 side chain, Boc on Ida amine) [compound 403] | < 10 µM | –
KNKSKGVVKIQRRKAPFVVYESIN [compound 7] | > 30 µM | –
